The text below walks through data of patent US9560848B2, “Method and compositions for biofouling deterrence” (Clemson University, priority 2008, dated 2017).

Series [1] concerns cyprids of the barnacle Balanus amphitrite. In kind it is in vivo. The procedure: Barnacle cyprids were challenged with 30-100 micro molar ranges of noradrenalin. Barnacle cyprids were monitored and assayed over period of 120 hours (5 days). Cyprid metamorphosis was imaged at 24, 48, 96, 120 hour intervals. Images were taken at each intervals and samples preserved for SEM analysis. On the last day of the experiments the metamorphosed barnacles were assayed for viability. The experiments were repeated 4 times with 3 replicates per experiment. […] Post NA treatment, either by flash induction or by incubating the cyprids in ASW containing NA. […] The onset of ecdysis was observed between 24 hr and 48 hr post NA treatment. Metamorphosing juvenile barnacles were seen encased in bivalve cyprid carapace. The pumping action of the thorax similar to beating of cirri was also observed (Glenner and Høeg 1993). […] Some ecdysing barnacles were still encased in cyprid carapaces while others had shed the bivalve carapace. The cyprids that had shed carapace were presumed to have ‘grown’ out of it as opposed to have shed carapace voluntarily as observed in untreated attached cyprids (Glenner and Høeg 1993). […] Ninety-six hours post NA treatment, the operculum with tergal and scutal plates is well demarcated from the wall plates. In contrast, control barnacles can be seen fully calcified with well recognizable wall and opercular shell plates at around 24-48 hr post settlement. Thus the NA treated cyprids took 96 hr to fully metamorphose and calcify but remained unattached and un-cemented to the substratum.
Exploration of surfaces by invertebrate larvae is an important step leading to attachment and metamorphosis into juveniles. Oyster pediveliger larvae and barnacle cyprid larvae investigate surfaces using exploratory structures bearing an array of sensory cells. The effect of the neurotransmitter noradrenaline (NA) was investigated on the cyprids of the barnacle Balanus amphitrite. 1 day old cyprids were challenged with micro-molar concentrations of NA ranging from […] and assayed over 5 days. […] Remnants of cyprid organs such as the antennules were clearly visible in metamorphosed juveniles. […] Cyprids are compared to oyster larvae to understand the effects of NA on the signal transduction cascades involved in larval settlement and to explore NAs potential as a natural fouling deterrent. Materials and Methods One day old cypris larvae of the B. amphitrite were challenged with […] of noradrenaline. Cyprids were challenged in two different ways. One group was flash challenged for 3 hours then washed with artificial sea water (ASW) and incubated in ASW free of NA for the remaining duration of the experiment. The second group was incubated with NA for 24 hours then washed and incubated in ASW for the remaining duration of the experiment. Barnacle cyprids were monitored and assayed over period of 120 hours (5 days). Cyprid metamorphosis was imaged at 24, 48, 96, 120 hour intervals. Images were taken at each intervals and samples preserved for SEM analysis. The cyprid larvae were imaged using, Zeiss discovery V12 stereo-microscope, Nikon AZ100 stereo-macrosope and the Hitachi-4800 field emission scanning electron microscope. On the last day of the experiments the metamorphosed barnacles were assayed for viability. Viability was ascertained by observing the movement of cirri and ability of the metamorphosed barnacles to feed normally. The experiments were repeated 4 times with 3 replicates per experiment.

In series [2] the test system is Oyster larvae. The note with it: Coon, Bonar et al 1986; cited from earlier work.
Series [3] has as its system Oyster larvae. Nature of the series: Treatment of oyster larvae with micromolar concentrations of noradrenalin. The class given is in vivo. The source says: Effect of Treatment of Oyster Larvae with Micromolar Concentrations of Noradrenalin

`NCC(O)c1ccc(O)c(O)c1` (racemic) [NA, DL-noradrenaline]: in series [1] (30-100 micro molar NA), the “metamorphosis of treated cyprids” value was “metamorphosed into adults”. In series [1] (30-100 micro molar NA, flash challenge 3 hours or 24 hours incubation, monitored 120 hours, listed as noradrenalin), the “settling, attachment or cementation of cyprids” value is recorded as “prevented them from settling or attaching to a surface”. In addition, the “time to fully metamorphose and calcify” value in series [1] (NA treated cyprids, controls 24-48 hr post settlement) is 96 h. In series [1] (flash induction or incubation in ASW containing NA), the “swimming of cyprids post NA treatment” value is “stopped swimming and sank to the bottom”. The “appearance of juvenile barnacles compared to controls” value in series [1] (in vivo) is “appeared to be normal”. Besides, the “onset of ecdysis post NA treatment” value in series [1] (post NA treatment) was 24 to 48 h. In series [2], the “swimming of NA treated oyster larvae” value is “stopped swimming and sank to the bottom of petri dishes”. In series [3], the “metamorphosis of treated oyster larvae” value is “metamorphose into adult oysters without cementation”; the “settling behavior and cementation of oyster larvae” value was “complete disruption of the settling behavior and cementation”; the “viability and development of treated oysters” value was “viable and develop normally into adults”.
